Measurements reported in PubChem BioAssay AID1918947 (Molecular Pharmacology Branch, DTP, NCI, 2023).
Several values for one entry are separate records, joined by “and”; a condition that tells them apart may be missing. Identical values can stand only once.

System: A498 complex spheroid viability
Experiment: Anticancer human tumor A498 cell line growth inhibition;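 further: spheroids exposed to agents for seven days before readout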;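 on viability, T/C: 100% = DMSO vehicle-treated spheroids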
Settings: for viability, T/C: stronger effect = lower value
How it was run: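 Multicellular complex spheroids of tumor cells with human endothelial cells (HUVEC) and mesenchymal stem cells; the LSD1 inhibitor iadademstat was combined with standard-of-care or investigational agents. Top concentration at or near clinical Cmax, half-log dilutions; final DMSO ≤0.25%.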

Compound: O=C(C=Cc1cccc(S(=O)(=O)Nc2ccccc2)c1)NO
- viability, T/C (compound 0.00949 µM): 94% and 91%
- viability, T/C (compound 0.03 µM): 82.5% and 80.6%
- viability, T/C (compound 0.0949 µM): 70.8% and 65.3%
- viability, T/C (compound 0.3 µM): 53.1% and 46.8%
- viability, T/C (compound 0.949 µM): 33.8% and 34.2%
- viability, T/C (compound 3 µM): 12.4% and 8.72%
- IC50 (curve of compound): 365 nM and 282 nM

Compound: CC[C@@]1(O)C(=O)OCc2c1cc1n(c2=O)Cc2cc3c(CN(C)C)c(O)ccc3nc2-1
- viability, T/C (compound 0.000316 µM): 106% and 95.2%
- viability, T/C (compound 0.001 µM): 103% and 95.8%
- viability, T/C (compound 0.00316 µM): 86.4% and 82.6%
- viability, T/C (compound 0.01 µM): 84.5% and 79.2%
- viability, T/C (compound 0.0316 µM): 62.7% and 56.4%
- viability, T/C (compound 0.1 µM): 33.7% and 32.4%
- IC50 (curve of compound): 52.5 nM and 44.6 nM

Compound: O=C(C=Cn1cnc(-c2cc(C(F)(F)F)cc(C(F)(F)F)c2)n1)NNc1cnccn1
- viability, T/C (compound 0.00316 µM): 71.3% and 66.5%
- viability, T/C (compound 0.01 µM): 42.9% and 36.6%
- viability, T/C (compound 0.0316 µM): 32.5% and 31.3%
- viability, T/C (compound 0.1 µM): 29.1% and 26.8%
- viability, T/C (compound 0.316 µM): 25.6% and 26.2%
- viability, T/C (compound 1 µM): 22.2% and 17.3%
- IC50 (curve of compound): 7.74 nM and 6.34 nM

Compound: Nc1ccn(C2OC(CO)C(O)C2(F)F)c(=O)n1 (centres undefined)
- viability, T/C (compound 0.000949 µM): 22.8% and 20%
- viability, T/C (compound 0.003 µM): 29.2% and 27.8%
- viability, T/C (compound 0.00949 µM): 43.3% and 107%
- viability, T/C (compound 0.03 µM): 36.6% and 35.1%
- viability, T/C (compound 0.0949 µM): 37% and 34%
- viability, T/C (compound 0.3 µM): 27.9% and 29.2%
- IC50 (curve of compound): < 0.949 nM

Compound: CCc1c2c(nc3ccc(O)cc13)-c1cc3c(c(=O)n1C2)COC(=O)[C@]3(O)CC
- viability, T/C (compound 0.000949 µM): 42.1% and 37.3%
- viability, T/C (compound 0.003 µM): 33% and 33.4%
- viability, T/C (compound 0.00949 µM): 24.4% and 22.1%
- viability, T/C (compound 0.03 µM): 1.45% and 0.7%
- viability, T/C (compound 0.0949 µM): 0.15%
- viability, T/C (compound 0.3 µM): 0.18% and 0.21%
- IC50 (curve of compound): < 0.949 nM

Compound: Nc1ncn(C2CC(O)C(CO)O2)c(=O)n1 (centres undefined)
- viability, T/C (compound 0.00316 µM): 104% and 103%
- viability, T/C (compound 0.01 µM): 103% and 107%
- viability, T/C (compound 0.0316 µM): 97.1% and 92.8%
- viability, T/C (compound 0.1 µM): 84.8% and 88.6%
- viability, T/C (compound 0.316 µM): 68.6% and 82.9%
- viability, T/C (compound 1 µM): 52.9% and 73.7%
- IC50 (curve of compound): > 1000 nM

Compound: Nc1ccccc1NC(=O)c1ccc(CNC(=O)OCc2cccnc2)cc1
- viability, T/C (compound 0.00949 µM): 91.2% and 95%
- viability, T/C (compound 0.03 µM): 84.3% and 96.3%
- viability, T/C (compound 0.0949 µM): 81.4% and 80.8%
- viability, T/C (compound 0.3 µM): 53.1% and 62%
- viability, T/C (compound 0.949 µM): 19.8% and 24.2%
- viability, T/C (compound 3 µM): 1.79% and 6.46%
- IC50 (curve of compound): 342 nM and 416 nM

Compound: Nc1ncn(C2CC(O)C(CO)S2)c(=O)n1 (centres undefined) + NC1CCC(NC2CC2c2ccccc2)CC1
- IC50 (curve of first compound, second compound 0.1 µM): 154 nM
- IC50 (curve of first compound, second compound 0.316 µM): 146 nM
- IC50 (curve of first compound, second compound 1 µM): 113 nM
- IC50 (curve of first compound, second compound 3.16 µM): 74 nM
- IC50 (curve of first compound, second compound 10 µM): 48.4 nM
- viability, T/C (second compound 0.1 µM, first compound 0.000949 µM): 101%
- viability, T/C (second compound 0.1 µM, first compound 0.003 µM): 92.5%
- viability, T/C (second compound 0.1 µM, first compound 0.00949 µM): 88.6%
- viability, T/C (second compound 0.1 µM, first compound 0.03 µM): 87.5%
- viability, T/C (second compound 0.1 µM, first compound 0.0949 µM): 62.1%
- viability, T/C (second compound 0.1 µM, first compound 0.3 µM): 31.5%
- viability, T/C (second compound 0.316 µM, first compound 0.000949 µM): 95.1%
- viability, T/C (second compound 0.316 µM, first compound 0.003 µM): 98.7%
- viability, T/C (second compound 0.316 µM, first compound 0.00949 µM): 98%
- viability, T/C (second compound 0.316 µM, first compound 0.03 µM): 95.2%
- viability, T/C (second compound 0.316 µM, first compound 0.0949 µM): 58.4%
- viability, T/C (second compound 0.316 µM, first compound 0.3 µM): 36%
- viability, T/C (second compound 1 µM, first compound 0.000949 µM): 90.4%
- viability, T/C (second compound 1 µM, first compound 0.003 µM): 94.9%
- viability, T/C (second compound 1 µM, first compound 0.00949 µM): 91.6%
- viability, T/C (second compound 1 µM, first compound 0.03 µM): 81.7%
- viability, T/C (second compound 1 µM, first compound 0.0949 µM): 54.4%
- viability, T/C (second compound 1 µM, first compound 0.3 µM): 26.2%
- viability, T/C (second compound 3.16 µM, first compound 0.000949 µM): 85.1%
- viability, T/C (second compound 3.16 µM, first compound 0.003 µM): 83.5%
- viability, T/C (second compound 3.16 µM, first compound 0.00949 µM): 90.6%
- viability, T/C (second compound 3.16 µM, first compound 0.03 µM): 75.8%
- viability, T/C (second compound 3.16 µM, first compound 0.0949 µM): 43%
- viability, T/C (second compound 3.16 µM, first compound 0.3 µM): 23.7%
- viability, T/C (second compound 10 µM, first compound 0.000949 µM): 74.5%
- viability, T/C (second compound 10 µM, first compound 0.003 µM): 81.7%
- viability, T/C (second compound 10 µM, first compound 0.00949 µM): 76.1%
- viability, T/C (second compound 10 µM, first compound 0.03 µM): 67.2%
- viability, T/C (second compound 10 µM, first compound 0.0949 µM): 25.9%
- viability, T/C (second compound 10 µM, first compound 0.3 µM): 14.3%
